Values quoted from earlier work, collected in US4486419A, “5,2',3',4',4",6"-Hexadeoxykanamycin and its 1-N-acylated derivative” (Zaidan Hojin Biseibutsu Kagaku Kenkyu Kai, priority 1982, dated 1984).

System: dibekacin-resistant bacteria
Conditions: background, U.S. Pat. No. 4,107,424; cited from earlier work

SMILES: NCC[C@H](O)C(=O)N[C@@H]1C[C@H](N)[C@@H](O[C@H]2O[C@H](CN)CC[C@H]2N)[C@H](O)[C@H]1O[C@H]1O[C@H](CO)[C@@H](O)[C@H](N)[C@H]1O [Habekacin, 1-N-[(S)-4-amino-2-hydroxybutyryl] dibekacin]
- activity against dibekacin-resistant bacteria: active against dibekacin-resistant bacteria
